Patent publication US11512053B2, “Arginine methyltransferase inhibitors and uses thereof” (priority 2013, dated 2022)

Molecular target: full-length human PRMT8 isoform 1 (Homo sapiens, UniProt Q9NR22)
Assay: PRMT8 Biochemical Assay (3H-SAM Flashplate, peptide substrate)
Settings: single experiment or average of multiple experiments; read-out: Biochemical IC50 PRMT8
Method in brief: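 Scintillation Flashplate capture of biotinylated histone H4 (31-45) peptide (150 nM) methylated by 1.5 nM PRMT8 using 3H-SAM (50 nM) with unlabelled SAM (550 nM); enzyme and compound preincubated 30 min, room temperature, in Bicine pH 7.6 buffer with TCEP, BSG, Tween 20 and 2% DMSO. Stopped with excess cold SAM (400 uM); IC50 from % inhibition, min control 1 mM SAH.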

full-length human PRMT8 isoform 1, sequence (Q9NR22 whole entry, canonical isoform): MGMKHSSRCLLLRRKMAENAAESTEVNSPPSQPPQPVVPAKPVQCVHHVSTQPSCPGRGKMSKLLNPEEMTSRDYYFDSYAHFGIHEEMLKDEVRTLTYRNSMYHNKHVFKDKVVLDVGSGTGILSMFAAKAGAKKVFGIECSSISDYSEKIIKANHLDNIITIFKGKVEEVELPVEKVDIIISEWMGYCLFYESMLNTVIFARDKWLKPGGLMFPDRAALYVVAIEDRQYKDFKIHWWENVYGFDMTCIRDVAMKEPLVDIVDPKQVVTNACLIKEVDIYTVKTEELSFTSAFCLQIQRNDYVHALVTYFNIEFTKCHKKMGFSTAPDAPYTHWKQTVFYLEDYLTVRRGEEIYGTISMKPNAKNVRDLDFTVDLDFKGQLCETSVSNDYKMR

- IC50: 950 nM
Structure (SMILES): CNCCN(C)Cc1c[nH]nc1C#Cc1ccccc1 [Compound 3]
